In brackets after ≈: the same amount, converted by molar mass.
Assays:
[1] = Hygroscopicity by dynamic vapor sorption (DVS); conditions: for weight gain: DVS, 25° C., at 90% RH; for hygroscopicity compared with the citrate salt, in words: monophosphate
Description: Dynamic vapor sorption (DVS) was performed with an ADVENTURE series DVS at 25° C. under nitrogen blow. Approximately 30 milligrams of material was used.

[2] = Thermodynamic solubility in water and bio-media (SGF, FaSSIF, FeSSIF) at 37° C.; format: physicochemical; conditions: for pH / FC (Form Change) / solubility at 1 h / solubility at 4 h / solubility at 24 h: 37° C.; for pH: filtrate of supernatant; for solubility at 1 h / solubility at 4 h / solubility at 24 h: thermodynamic from solid
Description: Specifically, about 40 mg samples (calculated with freebase) were added to 4.0 mL of each buffer. After shaking at 100 rpm at 37° C. for 1/4/24 hour(s), about 1.0 mL of each suspension was centrifuged for 5 minutes. The solids were analyzed by XRPD for crystal form, and the filtrates of supernatants were detected by HPLC for solubility and by pH meter for pH value.

[3] = PK study in Cynomolgus macaques, PO single dose; format: in vivo, Cynomolgus macaques (Macaca fascicularis); conditions: for exposure (AUC) compared to the free form, in words: Cynomolgus monkeys, monophosphate; for AUC(0-inf) / AUC(0-t) / Cmax: male, cynomolgus monkey, blood
Description: A PK Study of Crystalline form of 1:1 compound (I) Phosphate and compound (I) crystal form was conducted in Cynomolgus macaques (Cynomolgus non-human primates; Macaca fascicularis). […] Blood samples were collected at 0.25, 0.5, 1, 2, 4, 6, 8 and 24 hours, and were analyzed to determine Cmax and exposure (AUC).

pKa of the freebase form = format: physicochemical; conditions: basic
[4] = simulated gastric fluid, SGF, 1 Hr
[5] = simulated gastric fluid, SGF, 4 Hrs
[6] = simulated gastric fluid, SGF, 24 Hrs
[7] = Cynomolgus macaques, 10 mg/Kg PO single dose
[8] = Cynomolgus macaques, 100 mg/Kg PO single dose

Q: What does the source list for `Cn1c(Nc2nc3ccccc3o2)nc2cc(C(=O)NCCOCCO)ccc21.O=P(O)(O)O` [1:1 Compound (I) Phosphate, 2-[(1,3-benzoxazol-2-yl)amino]-N-[2-(2-hydroxyethoxy)ethyl]-1-methyl-1H-benzimidazole-5-carboxamide monophosphate]?
A: weight gain [1]: 0.835%; hygroscopicity compared with the citrate salt, in words ([1]; listed as phosphate salt): lower hygroscopicity; hygroscopicity compared with the citrate salt, in words [1]: low hygroscopicity; solubility compared to Compound (I), in words ([2]; FaSSIF and SGF): improved solubility; pH ([2]; FaSSIF, 1 Hr): 2.37; FC (Form Change) ([2]; FaSSIF, 1 Hr, solid by XRPD): Yes; pH ([2]; FaSSIF, 4 Hrs): 2.37; pH ([2]; FaSSIF, 24 Hrs): 2.36; pH ([2]; FeSSIF, 1 Hr): 4.06; FC (Form Change) ([2]; FeSSIF, 1 Hr, solid by XRPD): Yes; pH ([2]; FeSSIF, 4 Hrs): 4.21; pH ([2]; FeSSIF, 24 Hrs): 4.31; FC (Form Change) ([2]; SGF, 1 Hr): Clear; pH ([2]; SGF, 1 Hr): 1.36; FC (Form Change) ([2]; SGF, 4 Hrs): Clear; pH ([2]; SGF, 4 Hrs): 1.37; FC (Form Change) ([2]; SGF, 24 Hrs): Clear; pH ([2]; SGF, 24 Hrs): 1.41; solubility at 1 h [2, 4]: > 25900 µg/mL; solubility at 4 h [2, 5]: > 28400 µg/mL; solubility at 24 h [2, 6]: > 28400 µg/mL; solubility at 1 h ([2]; FaSSIF, 1 Hr): 190 µg/mL; solubility at 4 h ([2]; FaSSIF, 4 Hrs): 180 µg/mL; solubility at 24 h ([2]; FaSSIF, 24 Hrs): 70 µg/mL; solubility at 1 h ([2]; FeSSIF, 1 Hr): 1400 µg/mL; solubility at 4 h ([2]; FeSSIF, 4 Hrs): 770 µg/mL; solubility at 24 h ([2]; FeSSIF, 24 Hrs): 390 µg/mL; solubility at 1 h ([2]; water, 1 Hr): 4390 µg/mL; solubility at 4 h ([2]; water, 4 Hrs): 3230 µg/mL; solubility at 24 h ([2]; water, 24 Hrs): 2060 µg/mL; solubility compared to the free form, in words ([2]; water and bio-relevant media): significant solubility improvement; pH ([2]; water, 1 Hr): 2.05; FC (Form Change) ([2]; water, 1 Hr, solid by XRPD): Yes; pH ([2]; water, 4 Hrs): 2.04; pH ([2]; water, 24 Hrs): 1.97; higher exposure compared to free form Compound (I) ([3]; Cynomolgus macaques, 10 and 100 mpk oral dose): 1.5 times; Cmax compared to the free form, in words ([3]; Cynomolgus macaques, Table 7): roughly double; exposure (AUC) compared to the free form, in words ([3]; 10 and 100 mpk oral dose, listed as phosphate salt): roughly double; exposure (AUC) compared to the free form, in words ([3]; 10 and 100 mpk oral dose): roughly twice the exposure; AUC(0-inf) [3, 7]: 3590 ng·h/mL; AUC(0-t) [3, 7]: 3480 ng·h/mL; Cmax [3, 7]: 322 ng/mL; AUC(0-inf) [3, 8]: 9330 ng·h/mL; AUC(0-t) [3, 8]: 7580 ng·h/mL; Cmax [3, 8]: 723 ng/mL

Q: With `Cn1c(Nc2nc3ccccc3o2)nc2cc(C(=O)NCCOCCO)ccc21` [Compound (I), 2-[(1,3-benzoxazol-2-yl)amino]-N-[2-(2-hydroxyethoxy)ethyl]-1-methyl-1H-benzimidazole-5-carboxamide] as the molecule, how does the pKa (pKa of the freebase form) read?
A: ~2.75

Q: And the pH ([2]; FaSSIF, 1 Hr)?
A: 6.30

Q: What about the “FC (Form Change)” value ([2]; FaSSIF, 1 Hr, solid by XRPD) of the same molecule?
A: No

Q: And the pH ([2]; FaSSIF, 4 Hrs)?
A: 6.35

Q: What about the “FC (Form Change)” value ([2]; FaSSIF, 4 Hrs, solid by XRPD) of the same molecule?
A: No

Q: What about the pH ([2]; FaSSIF, 24 Hrs) of the same molecule?
A: 5.99

Q: What about the “FC (Form Change)” value ([2]; FaSSIF, 24 Hrs, solid by XRPD) of the same molecule?
A: No

Q: And the pH ([2]; FeSSIF, 1 Hr)?
A: 4.78

Q: And the “FC (Form Change)” value ([2]; FeSSIF, 1 Hr, solid by XRPD)?
A: No

Q: And the pH ([2]; FeSSIF, 4 Hrs)?
A: 4.73

Q: What about the “FC (Form Change)” value ([2]; FeSSIF, 4 Hrs, solid by XRPD) of the same molecule?
A: No

Q: And the pH ([2]; FeSSIF, 24 Hrs)?
A: 4.81

Q: What about the “FC (Form Change)” value ([2]; FeSSIF, 24 Hrs, solid by XRPD) of the same molecule?
A: No

Q: And the “FC (Form Change)” value ([2]; SGF, 1 Hr)?
A: No

Q: And the pH ([2]; SGF, 1 Hr)?
A: 2.34

Q: And the “FC (Form Change)” value ([2]; SGF, 4 Hrs)?
A: No

Q: What about the pH ([2]; SGF, 4 Hrs) of the same molecule?
A: 2.16

Q: And the “FC (Form Change)” value ([2]; SGF, 24 Hrs)?
A: No

Q: And the pH ([2]; SGF, 24 Hrs)?
A: 2.51

Q: What about the solubility at 1 h [2, 4] of the same molecule?
A: 7040 µg/mL (≈ 17.8 mM)

Q: What about the solubility at 4 h [2, 5] of the same molecule?
A: 6860 µg/mL (≈ 17.3 mM)

Q: What about the solubility at 24 h [2, 6] of the same molecule?
A: 7080 µg/mL (≈ 17.9 mM)

Q: What about the pH ([2]; water, 1 Hr) of the same molecule?
A: 5.69

Q: And the “FC (Form Change)” value ([2]; water, 1 Hr, solid by XRPD)?
A: No

Q: What about the pH ([2]; water, 4 Hrs) of the same molecule?
A: 5.07

Q: What about the “FC (Form Change)” value ([2]; water, 4 Hrs, solid by XRPD) of the same molecule?
A: No

Q: What about the pH ([2]; water, 24 Hrs) of the same molecule?
A: 5.95

Q: And the “FC (Form Change)” value ([2]; water, 24 Hrs, solid by XRPD)?
A: No

Q: And the AUC(0-inf) [3, 7]?
A: 2030 ng·h/mL

Q: And the AUC(0-t) [3, 7]?
A: 1920 ng·h/mL

Q: What about the Cmax [3, 7] of the same molecule?
A: 164 ng/mL

Q: And the AUC(0-inf) [3, 8]?
A: 4740 ng·h/mL

Q: What about the AUC(0-t) [3, 8] of the same molecule?
A: 4080 ng·h/mL

Q: What about the Cmax [3, 8] of the same molecule?
A: 350 ng/mL

Q: Which weight gain [1] does the source give for Citrate here?
A: 3.223%
